Measured values: patent US20040235855A1, “Phospholipase C inhibitors for use in treating inflammatory disorders” (priority 2003, published 2004)

How the values were obtained:
[1] = tested on: adjuvant-induced arthritis; experiment: Adjuvant-induced arthritis rat model; type: in vivo; settings: administered i.p.
Source text: The adjuvant-induced arthritis rat model was used to test Compound 38 (as described in Anderson G D, Hauser S D, McGarity K L, Bremer M E, Isakson P C and Gregory S A, Selective Inhibition of Cyclooxygenase (Cox)-2 Reverses Inflammation and Expression of Cox-2 and Interleukein 6 in Rat Adjuvant Arthritis, J. Clin. Invest., 1996, 97:2672-2679).

[2] = tested on: zymosan-induced peritonitis; experiment: Zymosan-induced peritonitis mouse model; type: in vivo; settings: 30 mpk dose administered i.p.
Source text: The zymosan-induced peritonitis model was used to test Compound 38 (as described in Rao T S, Currie J L, Shaffer A F and Isakson P C, In vivo Characterization of Zymosan-Induced Mouse Peritoneal Inflammation, J. Pharm. Exptl. Ther., 1994, 269: 917-925).

PMA-induced ear edema [3] = experiment: Chronic PMA-induced ear edema mouse model; type: in vivo; settings: 0.5 mg dose applied topically
Source text: The chronic PMA-induced ear edema mouse model was used to test Compound 38 (as described in Stanley P L, Steiner S, Havens M and Tramposch K M, Mouse Skin Inflammation Induced by Multiple Topical Applications of 12-O-Tetradecanoylphorbol-13-acetate, Skin Pharmacol., 1991, 4: 262-271).

[4] = tested on: carageenan-induced paw edema; experiment: Carageenan-induced paw edema rat model; type: in vivo
Source text: The carageenan-induced paw edema rat model was used to test Compound 38 (as described in Vinegar R, Truax J F, Selph J L, Johnston P R, Venable A L and McKenzie K K, Pathway to Carrageenan-Induced Inflammation in the Hind Limb of the Rat, Fed. Proc., 1987, 46:118-126).

human PLC-β2 = biological target: T1, human PLC-β2 (Homo sapiens, UniProt Q00722); experiment: PLC assay using FlashPlates (96-well, immobilized [3H]PIP2 substrate); type: biochemical; settings: purified recombinant human PLC-β2 or cytosolic human PLC-β2; hydrolysis of [3H]PIP2
T1 construct: made in house; host or cells: Sf9 cells (Spodoptera frugiperda), recombinant baculovirus
Procedure, shortened: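 Purified recombinant human PLC-β2 (Sf9 baculovirus) or cytosolic PLC-β2 from HL-60 cells hydrolysed [3H]PIP2 immobilised on phospholipid FlashPlates. Reactions ran in 50 mM Tris/HCl pH 7.2 with EDTA, KCl, LiCl, 0.04% DOC and 2 mM CaCl2. Activity was read as loss of bound radioactivity by scintillation counting.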

PMA-induced ear edema [5] = experiment: Acute PMA-induced ear edema mouse model; type: in vivo
Source text: The acute PMA-induced ear edema mouse model was used to test compounds of the present […] (as described in Carlson R P, O'Neill-Davis L, Chang J. and Lewis A J, Modulation of Mouse Ear Edema by Cyclooxygenase and Lipoxygenase Inhibitors and Other Pharmacologic Agents, Agents and Actions, 1985, 17:197-204).

T1 sequence (Q00722 whole entry): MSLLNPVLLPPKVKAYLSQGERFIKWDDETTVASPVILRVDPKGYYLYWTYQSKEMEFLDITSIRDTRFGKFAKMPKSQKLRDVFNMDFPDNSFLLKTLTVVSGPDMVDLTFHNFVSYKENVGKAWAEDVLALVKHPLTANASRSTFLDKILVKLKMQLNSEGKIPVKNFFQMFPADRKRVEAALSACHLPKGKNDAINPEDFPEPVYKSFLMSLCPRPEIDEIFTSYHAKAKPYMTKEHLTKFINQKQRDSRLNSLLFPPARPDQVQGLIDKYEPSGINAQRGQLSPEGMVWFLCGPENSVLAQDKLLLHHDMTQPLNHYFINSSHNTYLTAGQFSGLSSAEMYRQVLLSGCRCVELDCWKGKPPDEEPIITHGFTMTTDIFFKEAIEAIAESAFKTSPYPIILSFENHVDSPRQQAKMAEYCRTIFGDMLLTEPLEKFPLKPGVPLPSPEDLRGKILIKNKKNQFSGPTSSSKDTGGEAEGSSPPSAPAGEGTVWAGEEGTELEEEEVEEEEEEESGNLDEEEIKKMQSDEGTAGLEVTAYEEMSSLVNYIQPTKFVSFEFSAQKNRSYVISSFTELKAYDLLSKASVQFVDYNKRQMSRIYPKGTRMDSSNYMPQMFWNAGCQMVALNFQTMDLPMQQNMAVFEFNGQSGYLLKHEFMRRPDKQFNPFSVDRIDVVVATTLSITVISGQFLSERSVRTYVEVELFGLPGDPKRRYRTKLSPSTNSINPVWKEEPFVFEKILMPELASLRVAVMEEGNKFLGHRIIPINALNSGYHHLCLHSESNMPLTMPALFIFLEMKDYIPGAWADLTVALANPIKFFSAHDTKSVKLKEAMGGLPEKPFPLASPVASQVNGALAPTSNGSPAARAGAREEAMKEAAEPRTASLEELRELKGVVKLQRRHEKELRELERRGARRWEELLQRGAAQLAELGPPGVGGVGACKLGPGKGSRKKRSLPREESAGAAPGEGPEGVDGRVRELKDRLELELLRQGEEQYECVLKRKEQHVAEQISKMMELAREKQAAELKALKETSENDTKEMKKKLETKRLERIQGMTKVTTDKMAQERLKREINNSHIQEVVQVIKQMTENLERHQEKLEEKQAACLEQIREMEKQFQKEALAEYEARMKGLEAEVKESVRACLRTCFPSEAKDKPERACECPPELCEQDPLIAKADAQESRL

IC50 (human PLC-β2) | SMILES | inhibition in paws [1] | inhibition [2] | inhibition (PMA-induced ear edema [3]) | inhibition ([4]; 30 mpk dose administered i.p.) | inhibition ([4]; 30 mpk dose administered s.c.) | % Inhibition (PMA-induced ear edema [5]; 5 mpk i.v.) | % Inhibition (PMA-induced ear edema [5]; 30 mpk i.p.) | % Inhibition (PMA-induced ear edema [5]; 30 mpk p.o.)
2200 nM | O=C(Nc1cc(C(=O)N2CCNCC2)ccc1N1CCN(C(c2ccccc2)c2ccccc2)CC1)NC1CCCCC1 [Cpd 38, N-cyclohexyl-N′-[2-[4-(diphenylmethyl)-1-piperazinyl]-5-(1-piperazinylcarbonyl)phenyl]-urea] | significant inhibition in both paws | about 45% | 53% | 80% | 60% | 47% | 84% | 0%
1600 nM | O=C(Nc1ccccc1)Nc1cc(C(=O)N2CCNCC2)ccc1N1CCN(C(c2ccccc2)c2ccccc2)CC1 [Cpd 40, N-[2-[4-(diphenylmethyl)-1-piperazinyl]-5-(1-piperazinylcarbonyl)phenyl]-N′-phenylurea] | – | – | – | – | – | 44% | 81% | 9%
2300 nM | NC(=O)c1ccc(N2CCN(C(c3ccc(F)cc3)c3ccc(F)cc3)CC2)c(NC(=S)NCc2ccccc2)c1 [Cpd 21, 4-[4-[bis(4-fluorophenyl)methyl]-1-piperazinyl]-3-[[[(phenylmethyl)amino]thioxomethyl]amino]-benzamide] | – | – | – | – | – | 56% | 83% | 31%
1900 nM | NC(=O)c1ccc(N2CCN(C3c4ccccc4-c4ccccc43)CC2)c(NC(=O)Nc2ccccc2)c1 [Cpd 9, 4-[4-(9H-fluoren-9-yl)-1-piperazinyl]-3-[[(phenylamino)carbonyl]amino]-benzamide] | – | – | – | – | – | 44% | 52% | 44%
14000 nM | NC(=O)c1ccc(N2CCN(C(c3ccccc3)c3ccccc3)CC2)c(NC(=O)NC2CCCCC2)c1 [Cpd 10, 3-[[(cyclohexylamino)carbonyl]amino]-4-[4-(diphenylmethyl)-1-piperazinyl]-benzamide] | – | – | – | – | – | – | – | –
4300 nM | O=C(/C=C/c1ccccc1)NC(=O)Nc1cc(C(=O)N2CCNCC2)ccc1N1CCN(C(c2ccccc2)c2ccccc2)CC1 [Cpd 61, N-[2-[4-(diphenylmethyl)-1-piperazinyl]-5-(1-piperazinylcarbonyl)phenyl]-N′-[(2E)-1-oxo-3-phenyl-2-propenyl]-urea] | – | – | – | – | – | – | – | –
